Measured values from patent US20250099534A1, “UBIQUITIN HIGH AFFINITY CYCLIC PEPTIDES AND METHODS OF USE THEREOF” (TECHNION RESEARCH & DEVELOPMENT FOUNDATION LIMITED, priority 2022, published 2025).
Like-named read-outs stand apart in the source and are kept apart here. One block for each compound: values may come before it. Starred links: 1 amine or outer side, 2 acyl side, 3 side chain; linkers in the order of their positions; H or OH if unused. Positions of bridges follow the written chain, without caps; N, C: chain ends. Residues, ends and D or L forms follow the SMILES beside them. *: point of attachment. Fluorescein(5-Mal) = O=C1OC2(c3ccc(O)cc3Oc3cc(O)ccc32)c2ccc(N3C(=O)CC(*)C3=O)cc21; X2 = CN(C)c1ccc2c(c1)Oc1cc(N(C)C)ccc1C21OC(=O)c2cc(N3C(=O)CC(*)C3=O)ccc21; X1 = O=C(c1cccc(C[*:2])c1)[*:1]

Key:
[1] = Solubility in buffer (aq.) medium; assay type: physicochemical
U2OS cells [2] = assay: Cell uptake studies by live-cell confocal microscopy; details: 2 μM
Method: (§1) Cells were seeded for 24 h on ibidi 8 well μ-slides treated with poly-L-lysine to reach ˜90% confluency. Cells were then washed three times with warm PBS followed by incubation for 1 h with warm serum-free medium (DMEM) containing peptides. Thereafter, cells were washed two times with warm PBS. Prior to imaging, cells were washed with an optical culture medium and stained with Hoechst (2 μg/ml). Live cell CLSM images were captured using Confocal Zeiss LSM 710 equipped with 40×NA 1.2 water immersion objective lens using a 1 AU pinhole settings. Different lasers were used for the different tags (Hoechst, TAMRA, FITC), and during analysis, the μ-slide was kept at 37° C. in a humidified chamber.

U2OS cells [3] = system: U2OS cells
Method: as §1

aqueous solubility [1]: poor aqueous solubility
Compound: CC[C@H](C)[C@@H]1NC(=O)[C@H](Cc2c[nH]c3ccccc23)NC(=O)[C@H]([C@@H](C)CC)NC(=O)[C@H](CC(C)C)NC(=O)[C@H](CS)NC(=O)c2cccc(c2)CSC[C@@H](C(=O)NCC(N)=O)NC(=O)[C@H](CC(C)C)NC(=O)[C@H]([C@@H](C)CC)NC(=O)[C@H](Cc2ccc(O)cc2)NC(=O)[C@@H]2CCCN2C(=O)[C@H](CC(N)=O)NC(=O)[C@H](CCCCN)NC(=O)[C@H](CO)NC(=O)[C@H](CO)NC(=O)CNC1=O [cyclic peptide 2] (CLIWIGSSKNPYILCG-NH2; linker N-15 via X1)

Compound: CC[C@H](C)[C@@H]1NC(=O)[C@H](Cc2c[nH]c3ccccc23)NC(=O)[C@H]([C@@H](C)CC)NC(=O)[C@H](CC(C)C)NC(=O)[C@H](CS)NC(=O)c2cccc(c2)CSC[C@@H](C(=O)NCC(=O)N[C@@H](C)C(=O)N[C@@H](CSC2CC(=O)N(c3ccc4c(c3)C(=O)OC43c4ccc(N(C)C)cc4Oc4cc(N(C)C)ccc43)C2=O)C(N)=O)NC(=O)[C@H](CC(C)C)NC(=O)[C@H]([C@@H](C)CC)NC(=O)[C@H](Cc2ccc(O)cc2)NC(=O)[C@@H]2CCCN2C(=O)[C@H](CC(N)=O)NC(=O)[C@H](CCCCN)NC(=O)[C@H](CO)NC(=O)[C@H](CO)NC(=O)CNC1=O (stereo partly drawn) [cyclic peptide 26] (CLIWIGSSKNPYILCGAC(X2)-NH2; linker N-15 via X1)
cell-permeability / delivery to live cells (U2OS cells [2]): efficient cell-permeability

cell-permeability / delivery to live cells (U2OS cells [3]): did not observe an efficient delivery
Compound: CC[C@H](C)[C@@H]1NC(=O)[C@H](Cc2c[nH]c3ccccc23)NC(=O)[C@H]([C@@H](C)CC)NC(=O)[C@H](CC(C)C)NC(=O)[C@H](CS)NC(=O)c2cccc(c2)CSC[C@@H](C(=O)NCC(=O)N[C@@H](C)C(=O)N[C@@H](CSC2CC(=O)N(c3ccc4c(c3)C(=O)OC43c4ccc(O)cc4Oc4cc(O)ccc43)C2=O)C(N)=O)NC(=O)[C@H](CC(C)C)NC(=O)[C@H]([C@@H](C)CC)NC(=O)[C@H](Cc2ccc(O)cc2)NC(=O)[C@@H]2CCCN2C(=O)[C@H](CC(N)=O)NC(=O)[C@H](CCCCN)NC(=O)[C@H](CO)NC(=O)[C@H](CO)NC(=O)CNC1=O (stereo partly drawn) [cyclic peptide 29] (CLIWIGSSKNPYILCGAC(Fluorescein(5-Mal))-NH2; linker N-15 via X1)
